These results are taken from patent US20100093748A1, “SUBSTITUTED PIPERIDINES HAVING PROTEIN KINASE INHIBITING ACTIVITY” (ASTEX THERAPEUTICS LIMITED, priority 2006, published 2010).

For one test, the target named is T1, PKA catalytic domain (Homo sapiens, UniProt P17612).
T1 construct: using the PKA catalytic domain from Upstate Biotechnology (#14-440); purchased Upstate Biotechnology 14-440
The test can be described thus: Measurement of PKA kinase inhibitory activity (IC50), radiometric filter plate assay. In kind it is biochemical. The following applies: 1 nM enzyme, 40 μM ATP, 20 minutes. The method, then: Compounds of the invention can be tested for PK inhibitory activity using the PKA catalytic domain from Upstate Biotechnology (#14-440) and the 9 residue PKA specific peptide (GRTGRRNSI), also from Upstate Biotechnology (#12-257), as the substrate. A final concentration of 1 nM enzyme is used in a buffer that includes 20 mM MOPS pH 7.2, 40 μM ATP/γ^33P-ATP and […] substrate. Compounds are added in dimethylsulphoxide (DMSO) solution to a final DMSO concentration of 2.5%. The reaction is allowed to proceed for 20 minutes before addition of excess orthophosphoric acid to quench activity. Unincorporated γ^33P-ATP is then separated from phosphorylated proteins on a Millipore MAPH filter plate. The plates are washed, scintillant is added and the plates are then subjected to counting on a Packard Topcount.
The % inhibition of the PKA activity is calculated and plotted in order to determine the concentration of test compound required to inhibit 50% of the PKA activity (IC50).

The next test addresses T2, PKB-PIF fusion protein (Homo sapiens, UniProt P31751).
T2 construct: PIF (fusion partner); made in house
Put plainly: Measurement of PKB kinase inhibitory activity (IC50), radiometric filter plate assay. The class given is biochemical. The following applies: 0.6 nM enzyme, 30 μM ATP, AKTide-2T substrate, 20 minutes. The text has this:
The inhibition of protein kinase B (PKB) activity by compounds can be determined essentially as described by Andjelkovic et al. (Mol. Cell. Biol. 19, 5061-5072 (1999)) but using a fusion protein described as PKB-PIF and described in full by Yang et al (Nature Structural Biology 9, 940-944 (2002)). The protein is purified and activated with PDK1 as described by Yang et al. The peptide AKTide-2T (H-A-R-K-R-E-R-T-Y-S-F-G-H-H-A-OH) obtained from Calbiochem (#123900) is used as a substrate. A final concentration of 0.6 nM enzyme is used in a buffer that includes 20 mM MOPS pH 7.2, 30 μM ATP/γ^33P-ATP and 25 µM substrate. Compounds are added in DMSO solution to a final DMSO concentration of 2.5%. The reaction is allowed to proceed for 20 minutes before addition of excess orthophosphoric acid to quench activity. The reaction mixture is transferred to a phosphocellulose filter plate where the peptide binds and the unused ATP is washed away. After washing, scintillant is added and the incorporated activity measured by scintillation counting.
The % inhibition of the PKB activity is calculated and plotted in order to determine the concentration of test compound required to inhibit 50% of the PKB activity (IC50).

The subject of test [1] is phosphorylation of Serine-9 residue in Glycogen Synthase Kinase-3beta as surrogate marker of cellular PKB (Akt) activity. The test can be described thus: In vitro MDA-MB-468 human breast adenocarcinoma GSK-3 phosphorylation assay. In kind it is cell-based. Conditions: MDA-MB-468 cells, 2 hours compound incubation, mean IC50, read-out: Cell pGSK3b IC50. An outline of the steps:
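MDA-MB-468 cells (5000/well) were treated with compound for 2 h at 37° C, then fixed and immunostained for phospho-Ser9 GSK-3β with an Alexa Fluor 488 secondary antibody. Fluorescence was quantified on an Acumen Explorer. IC50 came from a background-corrected 4-parameter logistic fit with minimum set to zero; obvious outliers were excluded from means.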

Bounds are passed on as bounds.

T2 sequence (P31751 with tags, fused parts or gaps limits assumed): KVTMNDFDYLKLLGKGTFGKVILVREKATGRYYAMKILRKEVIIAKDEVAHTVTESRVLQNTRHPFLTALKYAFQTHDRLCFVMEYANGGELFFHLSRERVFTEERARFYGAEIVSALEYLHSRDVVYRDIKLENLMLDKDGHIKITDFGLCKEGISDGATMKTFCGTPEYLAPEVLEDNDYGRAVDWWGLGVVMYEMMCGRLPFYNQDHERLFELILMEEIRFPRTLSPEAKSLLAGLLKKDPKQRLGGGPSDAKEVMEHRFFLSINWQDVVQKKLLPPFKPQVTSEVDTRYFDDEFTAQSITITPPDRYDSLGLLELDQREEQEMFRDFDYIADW

One may read the IC50 as the concentration at which inhibition is half-maximal. In the case of `NC1(c2nc3ccccc3[nH]2)CCN(c2ncnc3[nH]c(=O)[nH]c23)CC1` [Example 18, 6-[4-amino-4-(1H-benzoimidazol-2-yl)-piperidin-1-yl]-7,9-dihydro-purin-8-one], the 50% inhibitory concentration (IC50) against PKA catalytic domain was less than 1000 nM; on PKB-PIF fusion protein, less than 100 nM. On PKB-PIF fusion protein, `COc1cccc2[nH]c(C3(N)CCN(c4ncnc5[nH]ccc45)CC3)nc12` [Example 9, 4-(4-Methoxy-1H-benzoimidazol-2-yl)-1-(7H-pyrrolo[2,3-d]pyrimidin-4-yl)-piperidin-4-ylamine] had an IC50 of less than 100 nM. Turning to `NC1(c2nc3ccccc3[nH]2)CCN(c2ncnc3[nH]ccc23)CC1` [Example 12, 4-(1H-benzoimidazol-2-yl)-1-(7H-pyrrolo[2,3-d]pyrimidin-4-yl)-piperidin-4-ylamine], the IC50 is less than 1000 nM against PKA catalytic domain and less than 100 nM on PKB-PIF fusion protein.

Regarding `NC1(c2nc3ccccc3o2)CCN(c2ncnc3[nH]c(=O)[nH]c23)CC1` [Example 38, 6-(4-amino-4-benzooxazol-2-yl-piperidin-1-yl)-7,9-dihydro-purin-8-one], at PKB-PIF fusion protein, the IC50 is less than 1000 nM. Consider `NC1(c2nc3cc(F)cc(F)c3[nH]2)CCN(c2ncnc3[nH]ccc23)CC1` [Example 7, 4-(5,7-Difluoro-1H-benzoimidazol-2-yl)-1-(7H-pyrrolo[2,3-d]pyrimidin-4-yl)-piperidin-4-ylamine], for which the IC50 is less than 100 nM against PKB-PIF fusion protein and 940 nM in test [1]. The compound `CNC1(c2nc3ccccc3[nH]2)CCN(c2ncnc3[nH]ccc23)CC1` [Example 33, [4-(1H-benzoimidazol-2-yl)-1-(7H-pyrrolo[2,3-d]pyrimidin-4-yl)-piperidin-4-yl]-methyl-amine] came in with an IC50 on PKB-PIF fusion protein of less than 1000 nM. Regarding `NC1(c2nc3cc(F)c(F)cc3[nH]2)CCN(c2ncnc3[nH]ccc23)CC1` [Example 2, 4-(5,6-Difluoro-1H-benzoimidazol-2-yl)-1-(7H-pyrrolo[2,3-d]pyrimidin-4-yl)-piperidin-4-ylamine], the IC50 on PKA catalytic domain is less than 1000 nM; against PKB-PIF fusion protein, less than 100 nM.

On to `NC1(c2nc3ccc(F)c(F)c3[nH]2)CCN(c2ncnc3[nH]ccc23)CC1` [Example 3, 4-(6,7-Difluoro-1H-benzoimidazol-2-yl)-1-(7H-pyrrolo[2,3-d]pyrimidin-4-yl)-piperidin-4-ylamine], for which the IC50 against PKA catalytic domain is less than 1000 nM; against PKB-PIF fusion protein, less than 100 nM. On the same counts, the results for `Cc1cccc2nc(C3(N)CCN(c4ncnc5[nH]ccc45)CC3)[nH]c12` [Example 4, 4-(7-Methyl-1H-benzoimidazol-2-yl)-1-(7H-pyrrolo[2,3-d]pyrimidine-4-yl)-piperidin-4-ylamine] are less than 1000 nM and less than 100 nM. For `NC1(c2ncc(-c3ccccc3)[nH]2)CCN(c2ncnc3[nH]ccc23)CC1` [Example 39, 4-(5-Phenyl-1H-imidazol-2-yl)-1-(7H-pyrrolo[2,3-d]pyrimidin-4-yl)-piperidin-4-ylamine], the IC50 against PKB-PIF fusion protein was less than 100 nM.

Compound `NC1(c2nc3ccccc3[nH]2)CCN(c2ccnc3[nH]ccc23)CC1` [Example 19, 4-(1H-benzoimidazol-2-yl)-1-(1H-pyrrolo[2,3-b]pyridin-4-yl)-piperidin-4-ylamine] came in with an IC50 at PKB-PIF fusion protein of less than 100 nM. On to `COc1ccc2[nH]c(C3(N)CCN(c4ncnc5[nH]ccc45)CC3)nc2c1` [Example 8, 4-(5-Methoxy-1H-benzoimidazol-2-yl)-1-(7H-pyrrolo[2,3-d]pyrimidin-4-yl)-piperidin-4-ylamine], for which the IC50 on PKA catalytic domain was less than 1000 nM; on PKB-PIF fusion protein it was less than 100 nM. Take `NCC1(c2nc3ccccc3o2)CCN(c2ncnc3[nH]ccc23)CC1` [Example 36, C-[4-Benzooxazol-2-yl-1-(7H-pyrrolo[2,3-d]pyrimidin-4-yl)-piperidin-4-yl]-methylamine]: the IC50 at PKB-PIF fusion protein was less than 100 nM.

In turn, `NC1(c2nc3ccc(Cl)cc3[nH]2)CCN(c2ccnc3[nH]ccc23)CC1` [Example 20, 4-(6-chloro-1H-benzoimidazol-2-yl)-1-(1H-pyrrolo[2,3-b]pyridin-4-yl)-piperidin-4-ylamine] registered an IC50 against PKB-PIF fusion protein of less than 100 nM. On the same count and under the same terms, next, `NCC1(c2nc3ccccc3[nH]2)CCN(c2ncnc3[nH]ccc23)CC1` [Example 34, C-[4-(1H-Benzoimidazol-2-yl)-1-(7H-pyrrolo[2,3-d]pyrimidin-4-yl)-piperidin-4-yl]-methylamine]: less than 100 nM. For `NC1(c2nc3ccccc3o2)CCN(c2ncnc3[nH]ccc23)CC1` [Example 37, 4-Benzooxazol-2-yl-1-(7H-pyrrolo[2,3-d]pyrimidin-4-yl)-piperidin-4-ylamine], the IC50 is less than 1000 nM against PKA catalytic domain and less than 100 nM at PKB-PIF fusion protein. At PKB-PIF fusion protein, `NC1(c2nc3cnccc3[nH]2)CCN(c2ncnc3[nH]ccc23)CC1` [Example 10] had an IC50 of less than 100 nM. `Cc1ccc2nc(C3(N)CCN(c4ncnc5[nH]ccc45)CC3)[nH]c2c1` [Example 5, 4-(6-Methyl-1H-benzoimidazol-2-yl)-1-(7H-pyrrolo[2,3-d]pyrimidin-4-yl)-piperidin-4-ylamine] registered an IC50 at PKB-PIF fusion protein of less than 100 nM. Turning to `NC1(c2nc3cccc(F)c3[nH]2)CCN(c2ncnc3[nH]ccc23)CC1` [Example 1, 4-(7-Fluoro-1H-benzoimidazol-2-yl)-1-(7H-pyrrolo[2,3-d]pyrimidin-4-yl)-piperidin-4-ylamine], the results for the IC50 against PKA catalytic domain and against PKB-PIF fusion protein were less than 1000 nM and less than 100 nM, respectively. Compound `NC1(c2ncc(-c3ccccc3)[nH]2)CCN(c2ccnc3[nH]ccc23)CC1` [Example 41, 4-(5-phenyl-1H-imidazol-2-yl)-1-(1H-pyrrolo[2,3-b]pyridin-4-yl)-piperidin-4-ylamine] yielded a concentration for half-maximal inhibition (IC50) at PKB-PIF fusion protein of less than 100 nM. Still for that read-out and setting: next, `NC1(c2ncc(-c3ccccc3)o2)CCN(c2ncnc3[nH]ccc23)CC1` [Example 40, 4-(5-Phenyl-oxazol-2-yl)-1-(7H-pyrrolo[2,3-d]pyrimidin-4-yl)-piperidin-4-ylamine]: less than 1000 nM.

`OCC1(c2nc3ccccc3[nH]2)CCN(c2ncnc3[nH]ccc23)CC1` [Example 35, [4-(1H-Benzoimidazol-2-yl)-1-(7H-pyrrolo[2,3-d]pyrimidin-4-yl)-piperidin-4-yl]-methanol]: the IC50 at PKA catalytic domain and on PKB-PIF fusion protein was less than 1000 nM throughout. On to `Cn1cc(-c2cccc3[nH]c(C4(N)CCN(c5ncnc6[nH]ccc56)CC4)nc23)cn1` [Example 86, 4-(4-(1-Methyl-1H-pyrazol-4-yl)-1H-benzo[d]imidazol-2-yl)-1-(7H-pyrrolo[2,3-d]pyrimidin-4-yl)piperidin-4-amine], for which, in test [1], the IC50 worked out at 130 nM. The same measure, in the same setting: next, `Cc1ccc2[nH]c(C3(CN)CCN(c4ncnc5[nH]cc(Br)c45)CC3)nc2c1` [Example 98, (1-(5-bromo-7H-pyrrolo[2,3-d]pyrimidin-4-yl)-4-(5-methyl-1H-benzo[d]imidazol-2-yl)piperidin-4-yl)methanamine]: 180 nM; `COc1ccccc1-c1ccc2[nH]c(C3(N)CCN(c4ncnc5[nH]ccc45)CC3)nc2c1` [Example 71, 4-[5-(2-methoxyphenyl)-1H-benzimidazol-2-yl]-1-(7H-pyrrolo[2,3-d]pyrimidin-4-yl)piperidin-4-amine]: 2500 nM. For `NC1(c2nc3cc(-c4ccncc4)ccc3[nH]2)CCN(c2ncnc3[nH]ccc23)CC1` [Example 70, 4-(5-pyridin-4-yl-1H-benzimidazol-2-yl)-1-(7H-pyrrolo[2,3-d]pyrimidin-4-yl)piperidin-4-amine], in test [1], the IC50 was found to be 1600 nM.

On to `NC1(c2nc3c(-c4cncnc4)cccc3[nH]2)CCN(c2ncnc3[nH]ccc23)CC1` [Example 91, 4-(4-pyrimidin-5-yl-1H-benzimidazol-2-yl)-1-(7H-pyrrolo[3,2-e]pyrimidin-4-yl)piperidin-4-amine], for which the half-inhibitory concentration (IC50) in test [1] amounted to 52 nM. On the same count and under the same terms, next, `NC1(c2nc3c(-c4ccoc4)cccc3[nH]2)CCN(c2ncnc3[nH]cnc23)CC1` [Example 106, 4-(4-furan-3-yl-1H-benzimidazol-2-yl)-1-(9H-purin-6-yl)piperidin-4-amine]: 52 nM; `NC1(c2nc3cc(Br)ccc3[nH]2)CCN(c2ncnc3[nH]ccc23)CC1` [Example 68B, 4-(5-bromo-1H-benzo[d]imidazol-2-yl)-1-(7H-pyrrolo[2,3-d]pyrimidin-4-yl)piperidin-4-amine]: 460 nM.
